# Test results: PubChem BioAssay AID2060359 (Molecular Pharmacology Branch, DTP, NCI, 2025)
# “And” between values parts separate entries of the source, which are not always exact repeats. Equal entries are not always repeated.
# Tested on: 276233-004-R-J1-PDC spheroids with HUVEC/MSC, viability
# Assay: Anticancer human tumor 276233-004-R-J1-PDC patient-derived colon adenocarcinoma cell line growth inhibition [TAK]
# Details: for viability, T/C: stronger effect = lower value
# Source text: Combinatorial screen of targeted agents with TAK-243 and ipatasertib in multi-cell type tumor spheroids
# A high-throughput screen of multi-cell type tumor spheroids was designed to identify active combinations of targeted small molecules and TAK-243 or ipatasertib. Complex spheroids include a stromal component modeled by human endothelial cells (HUVEC) and fibroblasts modeled by human mesenchymal stem cells (MSCs). The concentration ranges selected for each drug and investigational agent were based upon clinically achievable concentrations if the clinical Cmax of the agent was known.
# Compounds. The drugs and investigational agents: TAK-243 (785004), ipatasertib (767898), everolimus (733504), selumetinib (741078), bortezomib (756655), trametinib (758246), ixazomib (758254), vemurafenib (761431), dabrafenib (764134), sapanisertib (764658), alpelisib (765974), and copanlisib (816437), were obtained from the National Cancer Institute (NCI) Developmental Therapeutics Program Chemical Repository. The FDA-approved anticancer drug set is available from the NCI Developmental Therapeutics Program. […] The stock solutions were prepared in dimethyl sulfoxide (DMSO, Sigma-Aldrich, St. Louis, MO, cat. D2650) at 800-fold the tested concentration and stored at -70 degrees C prior to their use. All drugs and investigational agents were tested over a range starting from a high concentration at or near the clinical Cmax and decreasing in half-log increments. If the clinical Cmax for an agent had not been determined, the highest concentration tested was 10 microM.
# NCI60 Cell Culture. NCI60 cell lines were obtained from the NCI Developmental Therapeutics Program Tumor Repository. For each lot of cells, the Repository performed Applied Biosystems AmpFLSTR Identifiler testing with PCR amplification to confirm consistency with the published Identifier STR profile for each cell line. Cells were kept in continuous culture for no more than 20 passages. The optimal seeding densities for each of the cell lines at each time point assessed were determined prior to performing the concentration response studies. Briefly, the NCI60 human tumor lines were grown as monolayers in RPMI 1640 medium supplemented with 10% FBS and 2 mmol/L L-glutamine.
# An additional 2 lines were from the NCI60 cell line panel including melanomas, MALME-3M and SK-MEL-2. Pooled donor human umbilical vein endothelial cells (HUVEC, Lonza, cat. CC-2519) and human mesenchymal stem cells (hMSC, Lonza, cat. PT-2501) were purchased from Lonza (Walkersville, MD).
# PDMR cell lines were grown in complete medium (DC medium): Dulbecco's modified Eagle's medium (DMEM)/F12 supplemented with 5% fetal bovine serum (FBS), 2 mM L-glutamine, 100 U/mL penicillin and 100 µg/ml streptomycin, 0.4 µg/ml hydrocortisone, 10 ng/ml epidermal growth factor (EGF) recombinant human protein, 24 µg/mL adenine, and 0.1 mg/mL primocin. During culture from frozen stock vials, PDMR cells were cultured in the same medium containing 10 µM Y-27632 (see Table 3). The PDCs were cultured in complete DMEM/F12 media without 10 microM Y-27632 dihydrochloride for at least two passages prior to the screen. The pooled donor HUVEC and hMSC were cultured in endothelial cell growth medium 2 (PromoCell, Heidelberg, Germany, cat. C-22011) and mesenchymal stem cell growth medium 2 (PromoCell, cat. C-28009), respectively. For all experiments, HUVEC and hMSC were used at passages </=5.
# For the pre-screen, cell seeding densities were determined from a titration spanning the range from 5,000 to 313 cells per well. The mct-spheroids including 60% malignant cells, 25% HUVEC and 15% MSC dispensed as a mixture into U-bottom Ultra-Low Attachment 384-well plates (Corning, NY)
# High-throughput Drug Combination Screening.
# Prior to their inoculation into 384-well plates, malignant cells, HUVEC, and hMSC were removed from T flasks using TrypLE express (Thermo Fisher Scientific, cat. 12605036) and harvested by centrifugation for 5 min at 233 x g. […]
# 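Also: spheroids exposed to drugs for seven days before the viability read.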
structure (smiles),measurement,setting,value
CC(C)CC(NC(=O)CNC(=O)c1cc(Cl)ccc1Cl)B1OC(=O)CC(CC(=O)O)(C(=O)O)O1 (stereo not drawn),"viability, T/C",compound 0.000316 µM,99.7% and 101%
same,"viability, T/C",compound 0.001 µM,110% and 108%
same,"viability, T/C",compound 0.00316 µM,102% and 83.4%
same,"viability, T/C",compound 0.01 µM,103% and 92.3%
same,"viability, T/C",compound 0.0316 µM,91.4% and 105%
same,"viability, T/C",compound 0.1 µM,19.5% and 23.7%
same,IC50,curve of compound,61.4 nM and 66.5 nM
CC(C)n1nc(-c2ccc3oc(N)nc3c2)c2c(N)ncnc21 + CC(C)NCC(C(=O)N1CCN(c2ncnc3c2C(C)CC3O)CC1)c1ccc(Cl)cc1,IC50,"curve of first compound, second compound 0.3 µM",> 100 nM
same,IC50,"curve of first compound, second compound 0.949 µM",> 100 nM
same,IC50,"curve of first compound, second compound 3 µM",> 100 nM
same,IC50,"curve of first compound, second compound 9.49 µM",> 100 nM
same,IC50,"curve of first compound, second compound 30 µM",> 100 nM
same,"viability, T/C","second compound 0.3 µM, first compound 0.000316 µM",112%
same,"viability, T/C","second compound 0.3 µM, first compound 0.001 µM",98.7%
same,"viability, T/C","second compound 0.3 µM, first compound 0.00316 µM",89.5%
same,"viability, T/C","second compound 0.3 µM, first compound 0.01 µM",90.6%
same,"viability, T/C","second compound 0.3 µM, first compound 0.0316 µM",78.2%
same,"viability, T/C","second compound 0.3 µM, first compound 0.1 µM",60.8%
same,"viability, T/C","second compound 0.949 µM, first compound 0.000316 µM",104%
same,"viability, T/C","second compound 0.949 µM, first compound 0.001 µM",84.9%
same,"viability, T/C","second compound 0.949 µM, first compound 0.00316 µM",83.9%
same,"viability, T/C","second compound 0.949 µM, first compound 0.01 µM",68.1%
same,"viability, T/C","second compound 0.949 µM, first compound 0.0316 µM",65.3%
same,"viability, T/C","second compound 0.949 µM, first compound 0.1 µM",57.2%
same,"viability, T/C","second compound 3 µM, first compound 0.000316 µM",84.7%
same,"viability, T/C","second compound 3 µM, first compound 0.001 µM",81.8%
same,"viability, T/C","second compound 3 µM, first compound 0.00316 µM",72.4%
same,"viability, T/C","second compound 3 µM, first compound 0.01 µM",63.4%
same,"viability, T/C","second compound 3 µM, first compound 0.0316 µM",69.5%
same,"viability, T/C","second compound 3 µM, first compound 0.1 µM",58.9%
same,"viability, T/C","second compound 9.49 µM, first compound 0.000316 µM",74.8%
same,"viability, T/C","second compound 9.49 µM, first compound 0.001 µM",77.1%
same,"viability, T/C","second compound 9.49 µM, first compound 0.00316 µM",74.6%
same,"viability, T/C","second compound 9.49 µM, first compound 0.01 µM",70.1%
same,"viability, T/C","second compound 9.49 µM, first compound 0.0316 µM",66.5%
same,"viability, T/C","second compound 9.49 µM, first compound 0.1 µM",60.1%
same,"viability, T/C","second compound 30 µM, first compound 0.000316 µM",61.4%
same,"viability, T/C","second compound 30 µM, first compound 0.001 µM",64.7%
same,"viability, T/C","second compound 30 µM, first compound 0.00316 µM",59%
same,"viability, T/C","second compound 30 µM, first compound 0.01 µM",64.5%
same,"viability, T/C","second compound 30 µM, first compound 0.0316 µM",78.5%
same,"viability, T/C","second compound 30 µM, first compound 0.1 µM",59.7%
Cn1cnc2c(F)c(Nc3ccc(Br)cc3Cl)c(C(=O)NOCCO)cc21,"viability, T/C",compound 0.00949 µM,83.5% and 81.4%
same,"viability, T/C",compound 0.03 µM,81.7% and 79.9%
same,"viability, T/C",compound 0.0949 µM,62.3% and 70.2%
same,"viability, T/C",compound 0.3 µM,70.4% and 70.3%
same,"viability, T/C",compound 0.949 µM,57% and 62.4%
same,"viability, T/C",compound 3 µM,45.9% and 44.9%
same,IC50,curve of compound,2100 nM and 2190 nM
CC(C)n1nc(-c2ccc3oc(N)nc3c2)c2c(N)ncnc21,"viability, T/C",compound 0.000316 µM,104% and 103%
same,"viability, T/C",compound 0.001 µM,116% and 96.9%
same,"viability, T/C",compound 0.00316 µM,90.4% and 95.4%
same,"viability, T/C",compound 0.01 µM,76.1% and 71.7%
same,"viability, T/C",compound 0.0316 µM,82.8% and 66.4%
same,"viability, T/C",compound 0.1 µM,62% and 57.5%
same,IC50,curve of compound,> 100 nM
CCCS(=O)(=O)Nc1ccc(F)c(C(=O)c2c[nH]c3ncc(-c4ccc(Cl)cc4)cc23)c1F,"viability, T/C",compound 0.316 µM,81.8% and 103%
same,"viability, T/C",compound 1 µM,84.5% and 105%
same,"viability, T/C",compound 3.16 µM,114% and 104%
same,"viability, T/C",compound 10 µM,103% and 121%
same,"viability, T/C",compound 31.6 µM,103% and 89%
same,"viability, T/C",compound 100 µM,99% and 98.9%
same,IC50,curve of compound,> 100000 nM
